From paper PMC12274739, “Differential substrate degradation by super-degron: EGFP in wild-type mouse cells, PD-1 requires CRBN humanization” (iScience, 2025)
“And” between values parts separate entries of the source, which are not always exact repeats. Equal values may be shown once. Read-outs that look alike come from different tables or passages of the source.

Columns and labels:
[1] = target: endogenous PD-1 tagged with SD (Mus musculus, UniProt Q02242+Q8C7D2); experiment: Endogenous PD-1-SD on concanavalin A-stimulated spleen T cells, flow cytometry; format: cell-based; conditions: for percentage of activated T cells characterized by FSC high: Con A-stimulated splenocytes; for PD-1 on CD8+ and CD4+ cells: Con A, 24 h after 1 μM POM or 0.1–1 μM IBR
Chain of endogenous PD-1 tagged with SD (Q02242 with tags, fused parts or gaps): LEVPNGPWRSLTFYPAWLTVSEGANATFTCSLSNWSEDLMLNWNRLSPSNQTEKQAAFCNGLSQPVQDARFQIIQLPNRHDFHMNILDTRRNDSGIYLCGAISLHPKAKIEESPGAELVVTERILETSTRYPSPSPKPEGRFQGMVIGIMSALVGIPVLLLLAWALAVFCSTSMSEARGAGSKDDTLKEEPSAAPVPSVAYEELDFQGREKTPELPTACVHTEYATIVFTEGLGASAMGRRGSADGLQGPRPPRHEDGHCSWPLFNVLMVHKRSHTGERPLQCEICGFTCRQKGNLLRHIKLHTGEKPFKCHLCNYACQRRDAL
Chain of endogenous PD-1 tagged with SD (Q8C7D2 whole entry): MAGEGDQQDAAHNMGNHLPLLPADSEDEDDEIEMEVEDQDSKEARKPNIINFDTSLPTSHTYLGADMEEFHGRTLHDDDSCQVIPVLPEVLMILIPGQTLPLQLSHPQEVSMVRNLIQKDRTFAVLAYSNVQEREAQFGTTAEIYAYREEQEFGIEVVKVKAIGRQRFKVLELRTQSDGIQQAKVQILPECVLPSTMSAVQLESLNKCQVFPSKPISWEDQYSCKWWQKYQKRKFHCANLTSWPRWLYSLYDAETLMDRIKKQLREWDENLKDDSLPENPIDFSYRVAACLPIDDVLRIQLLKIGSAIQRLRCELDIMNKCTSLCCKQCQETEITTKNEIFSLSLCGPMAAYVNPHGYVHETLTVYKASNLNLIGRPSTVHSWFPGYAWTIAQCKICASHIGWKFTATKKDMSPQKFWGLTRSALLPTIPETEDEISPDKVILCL
Chain of endogenous PD-1 tagged with SD (Q3U1J4 whole entry partner): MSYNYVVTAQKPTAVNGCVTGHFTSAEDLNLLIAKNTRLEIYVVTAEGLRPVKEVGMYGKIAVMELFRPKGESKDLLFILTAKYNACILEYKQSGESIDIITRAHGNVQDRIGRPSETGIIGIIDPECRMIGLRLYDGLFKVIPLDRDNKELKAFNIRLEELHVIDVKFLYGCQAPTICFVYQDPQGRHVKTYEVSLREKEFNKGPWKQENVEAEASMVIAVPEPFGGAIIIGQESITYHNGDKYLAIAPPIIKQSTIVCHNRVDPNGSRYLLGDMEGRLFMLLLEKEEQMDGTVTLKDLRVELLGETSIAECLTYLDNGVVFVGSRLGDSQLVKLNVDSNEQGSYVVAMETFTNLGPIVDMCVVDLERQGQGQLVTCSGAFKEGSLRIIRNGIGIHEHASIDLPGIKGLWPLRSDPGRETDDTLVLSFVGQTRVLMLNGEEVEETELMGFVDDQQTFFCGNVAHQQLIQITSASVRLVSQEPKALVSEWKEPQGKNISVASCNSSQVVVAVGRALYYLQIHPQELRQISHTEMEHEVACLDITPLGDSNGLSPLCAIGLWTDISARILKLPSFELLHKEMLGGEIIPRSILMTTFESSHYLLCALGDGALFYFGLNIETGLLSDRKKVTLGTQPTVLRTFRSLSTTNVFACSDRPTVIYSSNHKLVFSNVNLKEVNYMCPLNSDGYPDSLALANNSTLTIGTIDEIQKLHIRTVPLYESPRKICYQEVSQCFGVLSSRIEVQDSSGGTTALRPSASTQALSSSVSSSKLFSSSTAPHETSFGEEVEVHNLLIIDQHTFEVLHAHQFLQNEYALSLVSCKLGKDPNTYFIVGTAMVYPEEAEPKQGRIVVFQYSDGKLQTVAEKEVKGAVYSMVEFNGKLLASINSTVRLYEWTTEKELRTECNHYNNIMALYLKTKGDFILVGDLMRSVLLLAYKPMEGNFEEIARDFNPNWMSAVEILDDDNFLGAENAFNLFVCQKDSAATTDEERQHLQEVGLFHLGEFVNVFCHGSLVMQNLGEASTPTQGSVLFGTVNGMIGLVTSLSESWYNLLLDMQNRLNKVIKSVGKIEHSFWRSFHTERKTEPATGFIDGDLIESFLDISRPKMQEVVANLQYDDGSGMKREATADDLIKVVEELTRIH
Protocol: The dotted lines show an isotype control without IBR. […] The dotted lines show an isotype control without IBR. […] The black lines show isotype control without IBR. […] Red lines show the boundary between positive and negative. […] (B–J) IBR or solvent (−) was added to cultured splenocytes (B–G) or mESCs (H–J). […] The concentration is 0.1 μM in the rightmost bar in each group, and the left neighbor is a step dilution of one-tenth. Intensities of anti-PD-1-FITC on CD4^+ and CD8^+ T cells were measured by flow cytometry, and the geometric means of fluorescence intensities (MFI) were calculated. The MFI of the isotype control of anti-PD-1-FITC was subtracted from each MFI of anti-PD-1-FITC. The dots indicate the results of the experiment for each of the three samples from different individuals.
Pdcd1^SD/SD/Crbn^I391V/I391V spleen-derived T cells were stimulated in vitro with concanavalin A (Con A) followed by treatment with thalidomide analogs to examine PD-1 expression (Figures 6B–6D and S6A–S6C).
To determine whether the same phenomenon occurs in non-T cells, exogenous PD-1 degradation was examined in mESCs transfected with PD-1-SD expression vectors (Figures 6H–6J and S6E). […] We hypothesized that the degradation efficiency of membrane-localized proteins might be reduced in mouse-type CRBNs. Therefore, we expressed EGFP-SDs with membrane-localized peptides attached to their N-termini in mESCs and added IBR. The degradation efficiency of EGFP-SD with membrane-localization peptide[32] […] Therefore, Pdcd1^SD/SD/Crbn^I391V/I391V mice were used for further analyses.
Splenocytes were harvested after the mice were euthanized. Splenocytes were isolated in RPMI 1640 medium and collected using a 70 μm filter. After treatment with ACT solution to remove red blood cells, splenocyte culture was performed at a density of 2 × 10^6 cells/mL in RPMI 1640 with 10% FBS, Glutamax and penicillin-streptomycin and incubated at 37°C in a 5% CO2 containing atmosphere. To activate T cells, 0.5 μg/mL concanavalin A was added to the medium for 3 days to activate T cells.

[2] = target: PD-1 tagged with SD in the brain (Mus musculus, UniProt Q02242+Q8C7D2); experiment: PD-1 expression in brain, western blotting; format: in vivo; conditions: Pdcd1SD/SD/CrbnI391V/I391V mice
Chain of PD-1 tagged with SD in the brain (Q02242 with tags, fused parts or gaps): as the sequence (Q02242 with tags, fused parts or gaps) above
Chain of PD-1 tagged with SD in the brain (Q8C7D2 whole entry): as the sequence (Q8C7D2 whole entry) above
Chain of PD-1 tagged with SD in the brain (Q3U1J4 whole entry partner): as the sequence (Q3U1J4 whole entry partner) above
Protocol: Although the growth of GL-261 in the brain was inhibited, it is likely that the BBB was destroyed in cancer growth experiments in which GL-261 was transplanted.[34] Therefore, we conducted an experiment in which IBR was administered without the transplantation of brain tumor cell lines as a model for protein degradation experiments in the brain under normal conditions. […] Thus, this degron system can be used in the brain.
Brain tissue was collected after the mice were deeply anesthetized and perfused with PBS to remove blood. They were immediately frozen in liquid nitrogen and homogenized in Nervous Tissue Protein Extraction buffer (TCI, Tokyo, Japan). After centrifuging the lysate at 20,000 g for 10 min at 4°C, heated at 98°C for 3 min with NuPAGE Sample Reducing Agent (Thermo Fisher Scientific) and NuPAGE LDS Sample buffer (Thermo Fisher Scientific), the supernatant was used for SDS-PAGE. SDS-PAGE was performed using a 5–12% polyacrylamide gel (FUJIFILM Wako) and NuPAGE MOPS SDS running buffer (Thermo Fisher Scientific) for 1 h, 120 V. One microgram of protein was loaded in each lane. […] After three washes with PBST, the secondary antibodies were detected using ImmunoStar (FUJIFILM Wako) and LAS 3000 (FUJIFILM). […]

[3] = target: EGFP-SD (Aequorea victoria, UniProt P42212, F64L/H231L/S65T); format: cell-based, mouse; conditions: stable; for DC50: read-out: DC50, EGFP-SD
[4] = test system: mouse PD-1-mCherry-super degron (SD) tag; experiment: Degradation of SD-tagged mouse PD-1-mCherry in Jurkat cells, flow cytometry 24 h; format: cell-based, human; conditions: for Bottom, mCherry (mC): no reagent = 1; for Bottom, PD-1 (FITC): surface PD-1, no reagent = 1
Source text: To identify a tag that could efficiently knock down mouse PD-1, we connected various degron tags to the C-terminus of PD-1, including IKZF1/3, Sall4, ZFP91, and SD, and generated Jurkat human T cell lymphoma cell lines that stably expressed the mouse PD-1-degron tag (Figure 1A). […] Therefore, a human cell line was used because it was thought that mouse CRBN would not degrade SD by thalidomide analogs. […] We also analyzed the degradation of total proteins using mCherry.
(C and D) The amount was standardized with the sample to which no reagent was added as 1. Concentrations of reagents were 0 (−), 5, 10, and 20 μM for IKZF minimal, IKZF full-length, and Sall4 tags and 0 (−), 0.5, 5 μM for SD tag. The dots indicate the results of the experiment for each of samples.

[5] = target: EGFP-IKZF (UniProt P42212+Q8C7D2, F64L/H231L/INS1V/S65T); format: cell-based, mouse; conditions: read-out: DC50, EGFP-IKZF, stable
Chain of EGFP-IKZF (Q8C7D2 whole entry, looked up, stated change not applied, other chains not shown): as the sequence (Q8C7D2 whole entry) above

[6] = Pdcd1SD/SD/CrbnI391V/I391V T cells
[7] = CrbnI391V/I391V mESCs, Figure 5E

Structure (SMILES)	percentage of activated T cells characterized by FSC high [1]	PD-1 on CD8+ and CD4+ cells [1, 6]	Bottom, EGFP-SD ([3]; B6J-S1 mESCs, Figure 5D)	LogDC50, EGFP-SD ([3]; B6J-S1 mESCs, Figure 5D)	Bottom, EGFP-SD [3, 7]	LogDC50, EGFP-SD [3, 7]	DC50 ([3]; B6J-S1 mESCs, Figure 5D)	DC50 [3, 7]	concentration showing the same effect on PD-1-SD [4]	Bottom, mCherry (mC) [4]	Bottom, PD-1 (FITC) [4]	DC50 [5, 7]	other results
O=C1CC[C@H](N2Cc3c(OCc4ccc(CN5CCOCC5)cc4)cccc3C2=O)C(=O)N1 [IBR, iberdomide]	not affected	barely observed	0.02363	-3.579 μM	0.04851	-4.174 μM	0.264 nM	0.067 nM	0.5 µM	0.2415	0.1258	0.639 nM	PD-1 degradation ([1]; Pdcd1SD/SD/Crbn+/+ T cells): barely degraded; PD-1 removal ([1]; Pdcd1SD/SD/CrbnI391V/I391V T cells, 10^−2 μM and 10^−3 μM IBR): mostly removed; PD-1 expression in the brain ([2]; IBR 10 mg/kg oral, 24 h): no changes in PD-1 expression in the brain; Bottom, EGFP-SD ([3]; B6J-S1 mESCs, Figure 5B): 0.05422; LogDC50, EGFP-SD ([3]; B6J-S1 mESCs, Figure 5B): -3.152 μM; DC50 ([3]; B6J-S1 mESCs, Figure 5B): 0.704 nM; DC50 ([5]; B6J-S1 mESCs, Figure 5B): 29.1 nM
Nc1cccc2c1C(=O)N(C1CCC(=O)NC1=O)C2=O (stereo not shown) [POM, pomalidomide]	not affected	barely observed	0.01974	-2.853 μM	0.06229	-2.993 μM	1.4 nM	1.02 nM	5 µM	0.2421	0.11 and 0.1083	5.11 nM	PD-1 amount in the brain vs vehicle ([2]; 20 mg/kg POM oral, after 24 h): reduced to half the amount; DC50 ([4]; read-out: DC50, PD-1 (FITC), surface PD-1): 148 nM; DC50 ([4]; read-out: DC50, mCherry (mC), mCherry): 234 nM
